# Experiment: Rotating Cage Autoclave Test (RCA), sour
# Conditions: 150 ppm, 200 ppm H2S, 15% CO2, balance N2, 65° C., 70 bar, 72 hours, 1700 rpm
# Experimental: In order to evaluate the corrosion inhibition efficacy of the polyesters according to the invention, 4 different test methods were employed: Linear Polarizing Resistance (LPR), Rotating Cylinder Electrode Test (RCE), Shell wheel test and High Pressure/High Temperature Rotating Cage Autoclave Test (RCA). For all testing 3.5% NaCl brine was used. For the application tests the materials to be tested (inventive as well as comparative) were diluted with butyl glycol to an active content of 25 wt.-% prior to testing. The dosage rates given in the tables refer to these 25 wt.-% active formulations.
# Autoclaves equipped with rotating cages (RCA) were used to simulate high shear conditions for the purpose of evaluating system corrosivity and inhibitor performance. The testing solution consisted of 720 mL 3.5% NaCl brine and 80 mL LVT-200 oil. The synthetic brine had three cycles of vacuum/CO2 charge to the vessel prior to initiating the test to remove dissolved oxygen and to achieve an anaerobic system. Two weight loss corrosion coupons fixed on the rotating cage were used in each autoclave. General corrosion rates were calculated by weight loss measurement. A blank was run for comparison. Test conditions have been summarized below in Table 5.
substance,measurement,value
N-tallow alkyl hexahydropyrimidinium ethoxylate methosulfate [sample 6],Average corrosion rate [mpy],8.99 mpy
same,Percent protection,92.8%
